In the supplement of paper PMC10307832:

What was measured:
Experiment in all cases: relative viability (nuclei count vs DMSO), 5 days (fraction); higher = more cells survive
Sunitinib + Lapatinib = compound: CCN(CC)CCNC(=O)c1c(C)[nH]c(/C=C2\C(=O)Nc3ccc(F)cc32)c1C [Sunitinib] + CS(=O)(=O)CCNCc1ccc(-c2ccc3ncnc(Nc4ccc(OCc5cccc(F)c5)c(Cl)c4)c3c2)o1 [Lapatinib] (partner 2 µM)
Procedure, shortened: (§1)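 Five library-drug doses in √10 steps were combined with a fixed anchor-drug dose, or a single drug was given alone, by pin tool to lung cancer cell lines in 1536-well plates the day after seeding. Nuclei were stained and counted after 5 days. Relative viability is the nuclei count in treated wells over that in vehicle wells, taken as the median of duplicate plates.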

Sunitinib + Olaparib = compound: CCN(CC)CCNC(=O)c1c(C)[nH]c(/C=C2\C(=O)Nc3ccc(F)cc32)c1C [Sunitinib] + O=C(c1cc(Cc2n[nH]c(=O)c3ccccc23)ccc1F)N1CCN(C(=O)C2CC2)CC1 [Olaparib] (partner 8 µM)
Procedure, shortened: as §1

Sunitinib + Decitabine = compound: CCN(CC)CCNC(=O)c1c(C)[nH]c(/C=C2\C(=O)Nc3ccc(F)cc32)c1C [Sunitinib] + Nc1ncn([C@H]2C[C@H](O)[C@@H](CO)O2)c(=O)n1 [Decitabine] (partner 2 µM)
Procedure, shortened: as §1

Sunitinib + AZD7762 = compound: CCN(CC)CCNC(=O)c1c(C)[nH]c(/C=C2\C(=O)Nc3ccc(F)cc32)c1C [Sunitinib] + NC(=O)Nc1cc(-c2cccc(F)c2)sc1C(=O)N[C@H]1CCCNC1 [AZD7762] (partner 0.2 µM)
Procedure, shortened: as §1

| Cell Line | relative viability (Sunitinib + Lapatinib; first compound 0.02 µM) | relative viability (Sunitinib + Lapatinib; first compound 0.06325 µM) | relative viability (Sunitinib + Lapatinib; first compound 0.2 µM) | relative viability (Sunitinib + Lapatinib; first compound 0.6325 µM) | relative viability (Sunitinib + Lapatinib; first compound 2 µM) | relative viability (Sunitinib + Olaparib; first compound 0.02 µM) | relative viability (Sunitinib + Olaparib; first compound 0.06325 µM) | relative viability (Sunitinib + Olaparib; first compound 0.2 µM) | relative viability (Sunitinib + Olaparib; first compound 0.6325 µM) | relative viability (Sunitinib + Olaparib; first compound 2 µM) | relative viability (Sunitinib + Decitabine; first compound 0.02 µM) | relative viability (Sunitinib + Decitabine; first compound 0.06325 µM) | relative viability (Sunitinib + Decitabine; first compound 0.2 µM) | relative viability (Sunitinib + Decitabine; first compound 0.6325 µM) | relative viability (Sunitinib + Decitabine; first compound 2 µM) | relative viability (Sunitinib + AZD7762; first compound 0.02 µM) | relative viability (Sunitinib + AZD7762; first compound 0.06325 µM) | relative viability (Sunitinib + AZD7762; first compound 0.2 µM) | relative viability (Sunitinib + AZD7762; first compound 0.6325 µM) | relative viability (Sunitinib + AZD7762; first compound 2 µM) |
| --- | --- | --- | --- | --- | --- | --- | --- | --- | --- | --- | --- | --- | --- | --- | --- | --- | --- | --- | --- | --- |
| NCI-H1355 | 1.01 | 1.04 | 1.12 | 1.07 | 1.06 | 0.786 | 0.812 | 0.904 | 0.818 | 0.712 | 0.369 | 0.381 | 0.375 | 0.365 | 0.345 | 0.764 | 0.845 | 0.859 | 0.767 | 0.689 |
| NCI-H1395 | 0.947 | 1.17 | 1.07 | 1.16 | 1 | 0.441 | 0.438 | 0.478 | 0.484 | 0.482 | 0.712 | 0.659 | 0.721 | 0.72 | 0.639 | 0.422 | 0.431 | 0.413 | 0.418 | 0.421 |
| NCI-H1437 | 0.789 | 1.1 | 0.928 | 0.793 | 1.03 | 0.623 | 0.641 | 0.614 | 0.61 | 0.647 | 0.566 | 0.606 | 0.624 | 0.514 | 0.628 | 1.09 | 1.14 | 1.15 | 1.13 | 1.07 |
| NCI-H1651 | 0.766 | 1.21 | 1.06 | 0.893 | 0.923 | 0.213 | 0.196 | 0.199 | 0.17 | 0.179 | 0.552 | 0.633 | 0.591 | 0.557 | 0.523 | 0.462 | 0.478 | 0.451 | 0.441 | 0.449 |
| NCI-H1666 |  | 0.9 | 0.584 | 0.719 | 0.671 | 0.77 | 0.825 | 0.75 | 0.862 | 0.85 | 0.905 | 0.884 | 0.738 | 0.698 | 0.735 | 0.782 | 1.02 | 0.907 | 0.895 | 0.886 |
| NCI-H1734 | 0.968 | 1.16 | 1.35 | 1.18 | 1.05 | 0.552 | 0.618 | 0.691 | 0.619 | 0.539 | 0.528 | 0.495 | 0.514 | 0.477 | 0.497 | 0.436 | 0.592 | 0.635 | 0.543 | 0.518 |
| NCI-H1755 | 1.04 | 1.08 | 1.09 | 1.07 | 1.02 | 0.859 | 0.881 | 0.93 | 0.961 | 0.91 | 0.69 |  | 0.663 | 0.692 | 0.76 | 0.414 | 0.478 | 0.53 | 0.408 | 0.421 |
| NCI-H1792 | 0.885 | 0.952 | 1.07 | 0.809 | 0.923 | 0.491 | 0.371 | 0.98 | 0.404 | 0.384 | 0.457 | 0.594 | 0.625 | 0.527 | 0.591 | 0.503 | 0.847 | 1.02 | 0.835 | 0.512 |
| NCI-H1793 |  | 0.675 | 0.828 | 0.651 | 0.484 |  | 0.726 | 1.03 | 1 | 0.706 |  | 0.496 | 0.487 | 0.549 | 0.49 |  | 0.448 | 0.44 | 0.377 | 0.334 |
| NCI-H1915 | 0.958 | 1.03 | 1.04 | 0.998 | 1.02 | 0.261 | 0.288 | 0.268 | 0.245 | 0.289 | 0.266 | 0.278 | 0.264 | 0.26 | 0.271 | 0.678 | 0.741 | 0.601 | 0.749 | 0.75 |
| NCI-H1944 | 0.648 | 0.932 | 0.997 | 0.849 | 0.964 | 0.39 | 0.414 | 0.473 | 0.43 | 0.447 | 0.477 | 0.415 | 0.466 | 0.42 | 0.449 | 0.435 | 0.481 | 0.656 | 0.63 | 0.506 |
| NCI-H1975 | 0.815 | 1.1 | 1.14 | 0.981 | 0.763 | 0.742 | 0.8 | 0.946 | 0.868 | 0.714 | 0.369 | 0.408 | 0.405 | 0.427 | 0.391 | 0.748 | 0.679 | 0.723 | 0.705 | 0.579 |
| NCI-H1993 | 0.835 | 0.889 | 0.834 | 0.836 | 0.849 | 1.02 | 0.979 | 1.12 | 0.844 | 1.03 | 0.514 | 0.632 | 0.605 | 0.577 | 0.61 | 0.723 | 0.757 | 0.782 | 0.761 | 0.845 |
| NCI-H2085 | 0.759 | 0.814 | 0.791 | 0.856 | 0.839 | 0.777 | 0.801 | 0.819 | 0.808 | 0.787 | 0.527 | 0.55 | 0.554 | 0.595 | 0.579 | 0.965 | 0.976 | 1.12 | 1.07 | 1 |
| NCI-H2087 |  | 1.11 | 1.01 | 1.26 | 1.03 | 0.605 | 0.689 | 0.822 | 0.674 | 0.56 | 0.273 | 0.274 | 0.315 | 0.245 | 0.264 | 1.21 | 1.42 | 1.34 | 1.41 | 1.46 |
| NCI-H2126 | 0.677 | 0.781 | 0.808 | 0.809 | 0.807 | 0.924 | 0.978 | 0.978 | 1 | 0.884 | 0.589 | 0.572 | 0.532 | 0.592 | 0.579 | 0.937 | 1.07 | 1.21 | 1.03 | 1.02 |
| NCI-H2170 | 0.313 | 0.264 | 0.271 | 0.268 | 0.243 | 0.593 | 0.571 | 0.651 | 0.605 | 0.535 | 0.452 | 0.465 | 0.484 | 0.422 | 0.412 | 0.797 | 0.876 | 0.955 | 0.87 | 0.772 |
| NCI-H2347 | 0.873 |  | 1.17 | 1.03 | 0.95 | 0.596 | 0.611 | 0.695 | 0.609 | 0.572 | 0.562 | 0.617 | 0.642 | 0.66 |  | 0.709 | 0.844 | 0.813 | 0.838 | 0.871 |
| NCI-H2405 | 1.03 | 1.21 | 1.18 | 1.18 |  | 0.855 | 0.965 | 0.88 | 0.96 | 0.93 | 0.811 | 0.8 | 0.761 | 0.754 | 0.761 | 0.703 | 0.759 | 0.8 | 0.878 | 0.648 |
| NCI-H3122 | 0.907 | 0.985 | 1.04 |  | 0.992 | 0.636 | 0.692 | 0.657 | 0.606 | 0.585 | 0.412 | 0.439 | 0.542 | 0.364 | 0.453 | 0.933 | 1.08 | 1.01 | 0.999 | 1.01 |
| PC-3 [JPC-3] | 0.456 | 0.459 | 0.494 | 0.464 | 0.5 | 1.05 | 1.12 | 1.22 | 1.12 | 0.926 | 0.89 | 0.788 |  | 0.79 | 0.764 | 0.844 | 0.79 | 0.845 | 0.827 | 0.865 |
| PC-14 | 0.301 | 0.332 | 0.369 | 0.33 | 0.314 | 0.292 | 0.334 | 0.196 | 0.335 | 0.211 | 0.2 | 0.23 | 0.239 | 0.23 | 0.252 | 0.374 | 0.442 | 0.387 | 0.319 | 0.348 |
| RERF-LC-KJ | 0.887 | 0.844 |  |  | 0.828 | 0.872 | 0.939 | 1.04 | 0.971 | 0.896 | 0.713 | 0.743 | 0.651 | 0.683 | 0.777 | 0.959 | 1.05 | 1.04 | 0.932 | 1 |
